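In this assay, cells in 96-well plates receive the compound at five concentrations for 48 hours. Endpoints are linearly interpolated between the surrounding concentrations. GI50 = concentration required for 50% inhibition of growth.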 Active and inactive are the calls of the source. Cut-off read from the data, not from the text of the source: active = GI50 up to about 1.1 µM and inactive = higher.
Tests used:
Test in all cases: NCI tumour cell line growth inhibition, 48 h
DLD-1 = tested on: DLD-1
K562 = tested on: K562
KM12 = tested on: KM12
M19-MEL = tested on: M19-MEL
MOLT-4 = tested on: MOLT-4
NCI-H23 = tested on: NCI-H23
NCI-H460 = tested on: NCI-H460
NCI/ADR-RES = tested on: NCI/ADR-RES
OVCAR-4 = tested on: OVCAR-4
RPMI-8226 = tested on: RPMI-8226
RXF 393 = tested on: RXF 393
SF-295 = tested on: SF-295
SN12C = tested on: SN12C
UACC-62 = tested on: UACC-62
XF498 = tested on: XF498
LXFL 529 = tested on: LXFL 529
ACHN = tested on: ACHN
BT-549 = tested on: BT-549
MDA-MB-231 = tested on: MDA-MB-231
MDA-N = tested on: MDA-N

Row | SMILES | GI50 (DLD-1) | GI50 (K562) | GI50 (KM12) | GI50 (M19-MEL) | GI50 (MOLT-4) | GI50 (NCI-H23) | GI50 (NCI-H460) | GI50 (NCI/ADR-RES) | GI50 (OVCAR-4) | GI50 (RPMI-8226) | GI50 (RXF 393) | GI50 (SF-295) | GI50 (SN12C) | GI50 (UACC-62) | GI50 (XF498) | GI50 (LXFL 529) | GI50 (ACHN) | GI50 (BT-549) | GI50 (MDA-MB-231) | GI50 (MDA-N)
1 | O=C1ON(Cc2ccccc2)C(c2ccccc2)N1c1ccccc1 (stereo not drawn) | > 100 µM (inactive) | > 95.9 µM (inactive) | > 100 µM (inactive) | > 100 µM (inactive) | 71.6 µM (inactive) | > 100 µM (inactive) | > 100 µM (inactive) | > 100 µM (inactive) | > 100 µM (inactive) | > 100 µM (inactive) | > 100 µM (inactive) | > 64 µM (inactive) | > 100 µM (inactive) | 98.9 µM (inactive) | > 100 µM (inactive) | – | – | – | – | –
2 | O=NN1C(c2ccccc2)CCCC1c1ccccc1 (stereo not drawn) | > 90.6 µM (inactive) | 35.9 µM (inactive) | > 89.9 µM (inactive) | 85.9 µM (inactive) | 27.9 µM (inactive) | 42 µM (inactive) | 43.9 µM (inactive) | 51.1 µM (inactive) | 35.9 µM (inactive) | 21.7 µM (inactive) | 44.5 µM (inactive) | 22.1 µM (inactive) | > 100 µM (inactive) | > 94.8 µM (inactive) | 31.7 µM (inactive) | – | – | – | – | –
3 | O=C1C(Cl)N(c2cccc(Cl)c2)C1c1c[nH]c2ccccc12 (stereo not drawn) | – | > 100 µM (inactive) | > 100 µM (inactive) | > 100 µM (inactive) | > 100 µM (inactive) | > 100 µM (inactive) | > 100 µM (inactive) | – | > 100 µM (inactive) | > 100 µM (inactive) | > 100 µM (inactive) | > 100 µM (inactive) | > 100 µM (inactive) | > 100 µM (inactive) | > 100 µM (inactive) | > 100 µM (inactive) | – | – | – | –
4 | CCOC(=O)C(Cc1ccccc1)NC(=O)OC(C)(C)C (stereo not drawn) | > 100 µM (inactive) | > 100 µM (inactive) | > 100 µM (inactive) | > 100 µM (inactive) | > 100 µM (inactive) | > 100 µM (inactive) | > 100 µM (inactive) | – | – | – | – | > 100 µM (inactive) | > 100 µM (inactive) | > 100 µM (inactive) | > 100 µM (inactive) | > 100 µM (inactive) | > 100 µM (inactive) | – | – | –
5 | COc1ccc(-c2cc(-c3cc(OC)c(OC)c(OC)c3)cc(-c3cc4ccccc4oc3=O)n2)cc1 | – | 30.1 µM (inactive) | 12.6 µM (inactive) | – | > 100 µM (inactive) | 7.87 µM (inactive) | 5.78 µM (inactive) | 7.18 µM (inactive) | 3.94 µM (inactive) | – | 3.24 µM (inactive) | 4.99 µM (inactive) | 8.93 µM (inactive) | 12.5 µM (inactive) | – | – | 4.13 µM (inactive) | 8.79 µM (inactive) | 2.3 µM (inactive) | 11.6 µM (inactive)
6 | O=C(/C=C/c1cccc2ccccc12)c1ccccc1Cl | 7.89 µM (inactive) | 5.57 µM (inactive) | 8.63 µM (inactive) | – | 3.85 µM (inactive) | 14.3 µM (inactive) | 13.5 µM (inactive) | – | 15.1 µM (inactive) | 5.43 µM (inactive) | 16.7 µM (inactive) | – | > 100 µM (inactive) | 14.1 µM (inactive) | 7.59 µM (inactive) | 13.8 µM (inactive) | 17.5 µM (inactive) | – | – | –
7 | Clc1cc2c(c(CSC3=NCN(CC4CC4)CN3)c1)OCOC2 | – | 28.1 µM (inactive) | 30.8 µM (inactive) | – | 22.5 µM (inactive) | 17.1 µM (inactive) | 17.8 µM (inactive) | 20.6 µM (inactive) | 34.3 µM (inactive) | 12.1 µM (inactive) | 17.3 µM (inactive) | 24.6 µM (inactive) | 28.6 µM (inactive) | 17.9 µM (inactive) | – | – | 17.6 µM (inactive) | 19.1 µM (inactive) | 19.5 µM (inactive) | 16.3 µM (inactive)
8 | COc1ccc2c(c1)CCN=C2Cc1cc(OC)c(OC)cc1CCCl | – | 81.1 µM (inactive) | 33.3 µM (inactive) | – | 54.8 µM (inactive) | 52 µM (inactive) | 69.8 µM (inactive) | > 100 µM (inactive) | > 100 µM (inactive) | 55 µM (inactive) | 24.9 µM (inactive) | 30.9 µM (inactive) | 48.4 µM (inactive) | 53.8 µM (inactive) | – | – | 57 µM (inactive) | > 100 µM (inactive) | 32.1 µM (inactive) | 53.8 µM (inactive)
9 | N#CC1(C#N)C(=O)c2ccncc2C1=O | – | > 100 µM (inactive) | > 100 µM (inactive) | – | – | > 100 µM (inactive) | > 100 µM (inactive) | 63.7 µM (inactive) | > 100 µM (inactive) | > 100 µM (inactive) | > 100 µM (inactive) | > 100 µM (inactive) | > 100 µM (inactive) | > 100 µM (inactive) | – | – | > 100 µM (inactive) | > 100 µM (inactive) | > 100 µM (inactive) | > 100 µM (inactive)
10 | C=C(C)[C@@H]1CCC2=C[C@H](CC(C)=CC3=CC(C)=C(O3)[C@@H]1OC)OC2=O | – | > 100 µM (inactive) | > 100 µM (inactive) | – | > 100 µM (inactive) | – | > 100 µM (inactive) | 90.4 µM (inactive) | > 100 µM (inactive) | > 100 µM (inactive) | 23.8 µM (inactive) | 21 µM (inactive) | > 100 µM (inactive) | 29.7 µM (inactive) | – | – | 76.6 µM (inactive) | 51.6 µM (inactive) | 29.5 µM (inactive) | > 100 µM (inactive)
11 | CCOC(=O)c1ccc(N(CCOS(=O)(=O)c2ccc(C)cc2)CCOS(=O)(=O)c2ccc(C)cc2)cc1 | – | > 100 µM (inactive) | > 100 µM (inactive) | – | 2.7 µM (inactive) | > 100 µM (inactive) | 4.66 µM (inactive) | > 100 µM (inactive) | 32.8 µM (inactive) | 10 µM (inactive) | 4.49 µM (inactive) | > 100 µM (inactive) | < 0.01 µM (active) | > 100 µM (inactive) | – | – | 6.78 µM (inactive) | > 100 µM (inactive) | 27.2 µM (inactive) | > 100 µM (inactive)
12 | CCOC(=O)CC(=O)CSc1c(-c2ccccc2)c(=O)n(-c2ccccc2)c(=S)n1-c1ccccc1 | – | > 100 µM (inactive) | > 100 µM (inactive) | – | 38.9 µM (inactive) | > 100 µM (inactive) | > 100 µM (inactive) | > 100 µM (inactive) | > 100 µM (inactive) | – | > 100 µM (inactive) | > 100 µM (inactive) | > 100 µM (inactive) | > 100 µM (inactive) | – | – | > 100 µM (inactive) | – | > 100 µM (inactive) | > 100 µM (inactive)
13 | Cc1ccc(Nc2n[nH]c(NS(=O)(=O)c3cc(C(=O)Nc4ccc(Cl)cc4)c(Cl)cc3S)n2)cc1 | – | > 100 µM (inactive) | > 100 µM (inactive) | – | > 100 µM (inactive) | > 100 µM (inactive) | 36 µM (inactive) | > 100 µM (inactive) | > 100 µM (inactive) | > 100 µM (inactive) | 62.2 µM (inactive) | > 100 µM (inactive) | > 100 µM (inactive) | > 100 µM (inactive) | – | – | > 100 µM (inactive) | > 100 µM (inactive) | > 100 µM (inactive) | > 100 µM (inactive)
14 | CC(=O)O[C@]12CCCCCC1C1(O)C(O)CCCC[C@H]12 (stereo partly drawn) | – | > 100 µM (inactive) | > 100 µM (inactive) | > 100 µM (inactive) | > 100 µM (inactive) | > 100 µM (inactive) | > 100 µM (inactive) | – | > 100 µM (inactive) | > 100 µM (inactive) | > 100 µM (inactive) | > 100 µM (inactive) | > 100 µM (inactive) | > 100 µM (inactive) | > 100 µM (inactive) | > 100 µM (inactive) | > 100 µM (inactive) | – | – | –
15 | O=S(=O)(O)c1ccc(/N=N\c2ccc(/N=N/c3ccc(/C=C/c4ccc(/N=[N+](\[O-])c5ccc(/C=C/c6ccc(/N=N/c7ccc(/N=N/c8ccc(S(=O)(=O)O)cc8)c8ccccc78)cc6S(=O)(=O)O)c(S(=O)(=O)O)c5)cc4S(=O)(=O)O)c(S(=O)(=O)O)c3)c3ccccc23)cc1 | > 100 µM (inactive) | > 100 µM (inactive) | > 100 µM (inactive) | > 100 µM (inactive) | > 100 µM (inactive) | > 100 µM (inactive) | > 100 µM (inactive) | > 100 µM (inactive) | > 100 µM (inactive) | > 100 µM (inactive) | > 100 µM (inactive) | > 74.6 µM (inactive) | > 100 µM (inactive) | > 100 µM (inactive) | > 66.8 µM (inactive) | – | – | – | – | –
16 | O=C(O)Cc1cccc2c1Oc1ccccc1S2 | > 100 µM (inactive) | > 100 µM (inactive) | > 100 µM (inactive) | > 100 µM (inactive) | > 100 µM (inactive) | > 100 µM (inactive) | > 100 µM (inactive) | – | > 100 µM (inactive) | > 100 µM (inactive) | > 100 µM (inactive) | > 100 µM (inactive) | > 100 µM (inactive) | > 100 µM (inactive) | – | > 100 µM (inactive) | > 100 µM (inactive) | – | – | –
17 | C[C@]12CCC(=O)C(O)=C1CC[C@@H]1[C@@H]2CC[C@]2(C)C(=O)CC[C@@H]12 [FORMESTANE] | > 100 µM (inactive) | > 89.9 µM (inactive) | > 74.3 µM (inactive) | – | > 75.9 µM (inactive) | > 100 µM (inactive) | > 100 µM (inactive) | > 100 µM (inactive) | > 100 µM (inactive) | > 100 µM (inactive) | > 100 µM (inactive) | > 100 µM (inactive) | > 100 µM (inactive) | > 100 µM (inactive) | 88.1 µM (inactive) | 59.3 µM (inactive) | > 100 µM (inactive) | > 100 µM (inactive) | > 100 µM (inactive) | > 100 µM (inactive)

From ChEMBL document CHEMBL1201862, “PubChem BioAssay data set” (2004)
